US20240315994A1, “SMALL MOLECULE MODULATORS OF FERROPTOSIS” (ARPEGGIO BIOSCIENCES, INC., priority 2021, published 2024)

Legend:
recombinant GPX4 protein = biological target: T1, recombinant GPX4 protein (Homo sapiens, UniProt P36969); assay: Intact protein mass spectrometry binding to recombinant GPX4; settings: for binding to recombinant GPX4 in vitro / number of binding events / sites on GPX4 (mass shifts): intact protein mass spectrometry, 2 hours incubation
T1 construct: purchased Cayman Chemical SO960203
T1 sequence (P36969 1-197): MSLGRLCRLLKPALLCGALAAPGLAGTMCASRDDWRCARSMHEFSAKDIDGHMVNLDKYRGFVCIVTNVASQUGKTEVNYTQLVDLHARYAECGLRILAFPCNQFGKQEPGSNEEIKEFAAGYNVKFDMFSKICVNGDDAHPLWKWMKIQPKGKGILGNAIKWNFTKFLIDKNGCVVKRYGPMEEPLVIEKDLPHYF
Source text: To determine whether the five ferroptosis-inducing compounds identified in FIG. 3 and FIG. 4 could function through direct binding and inhibition of GPX4, we tested binding of each compound to recombinant GPX4 protein in vitro by intact protein mass spectrometry. Intact mass analysis is the assessment of a protein's total molecular weight by mass spectrometry without prior digestion or fragmentation of the molecule of interest. Covalent binding of a potential inhibitor to GPX4 can be detected by a shift in the mass of the intact protein. For the intact protein analysis, we used ML162, a well-characterized GPX4 inhibitor (available from Sigma Aldrich), as a positive control. […] Briefly, compounds were incubated with recombinant GPX4 protein in vitro for 2 hours before quenching with trifluoroacetic acid (TFA) and analysis by mass spectroscopy.
To determine whether the ferroptosis-inducing compounds 6666 and 8147 could function through direct binding and inhibition of GPX4, we tested binding of each compound to recombinant GPX4 protein in vitro by intact protein mass spectrometry. Compound 8216 was used as a positive control (see FIG. 6). Briefly, 15 μL of GPX4 protein (Cayman Chemical cat #SO960203]) was incubated with 100 µM of each compound ([…]) and diluted with 25.5 μl of PBS. The incubation was performed at room temperature for 2 hours and then the reaction was quenched with 3 μL of trifluoroacetic acid. Samples were subjected to UPLC coupled to Synapt G2 mass spectrometer to evaluate if binding of the test compound to GPX4 occurs. Binding is evident by a mass shift equivalent to the mass size of the compound minus a chlorine atom plus the mass size of the GPX4 protein, as described by the manufacturer.

[1] = tested on: HMOX1 expression in HT-1080 fibrosarcoma cells; assay: HMOX1 induction by RT-qPCR in HT-1080 cells; assay type: cell-based; settings: for HMOX1 induction (RT-qPCR): 10 μM or 5 μM, four hours, normalized to ACTB, relative to DMSO
Method: We tested several of our ferroptosis-inducing compounds for their ability to rapidly induce HMOX1 by RT-qPCR. Briefly, HT-1080 fibrosarcoma cells were treated with either 10 µM or 5 µM of compound RSL3, 8216, 1962, 1816, or 3362 for four hours. RNA was isolated and reverse transcribed and HMOX1 expression quantified by qPCR. Each sample was normalized to an ACTB housekeeping gene control and fold change was calculated relative to a DMSO control.
We tested several of the ferroptosis-inducing compounds for their ability to rapidly induce expression of HMOX1. Briefly, HT-1080 fibrosarcoma cells were plated in 6-well dishes 24 hours prior to treatment with 5 μM of 8147, 6047, 3793, Rsl3, 6666 or 8216 with and without the addition of ferrostatin-1 to the media. Cells were harvested from the plate after 4 hours of compound treatment by adding Trizol reagent directly to the plate to lyse the cells and preserve the RNA. RNA was isolated using the Direct-zol 96-well RNA kit (Zymo cat #R2054). Subsequently purity and quantity of RNA in the samples were measured using a Nanodrop (Thermo Fisher cat #ND-ONE-W). RNA samples were normalized to 2 μg and reverse transcribed to cDNA using the Multiscribe High-Capacity Reverse Transcription kit (Thermo Fisher cat #4368814) following manufacturer's instructions. Quantitative real time PCR was carried out in triplicate using SYBR Select Master Mix (Thermo Fisher cat #4472903) following manufacturer's instructions with primers designed against HMOX1 and ActB from IDT. HMOX1 expression levels were normalized to ActB for each sample then fold change was determined against the vehicle control, DMSO.

[2] = tested on: HK-2 kidney epithelial cells; assay: HK-2 kidney epithelial cell viability dose response (Cell Titer Glo); assay type: cell-based; settings: healthy HK-2 vs cancer HT-1080 cells
Method: To test whether the ferroptosis-inducing compounds 8216 or 1962 display selectivity for cancer cells we performed a dose response study in HK-2 kidney epithelial cells. HK-2 kidney epithelial cells are a non-cancerous cell line that is commonly used as a “healthy” control in ferroptosis experiments. Briefly, HK-2 kidney epithelial cells were plated 24 hours prior to treatment with concentrations of the ferroptosis-inducing compounds 8216 or 1962 ranging from 10 µM to 10 nM. The ferroptosis-inducing compound RSL3 was used as a positive control. As an additional control, we included a non-specific inducer of apoptosis, staurosporine. Cell Titer Glo® was used to read out cell viability after 48 hours of compound exposure. Data was collected in triplicate.
To determine whether the reduction in viability of HK-2 renal epithelial cells exposed to compounds 8216 or 1962 is driven by induction of ferroptosis, we performed dose response curves for each compound in the presence or absence of ferrostatin-1. We also compared the EC50s for each compound between healthy cells (HK-2 renal epithelial cells) and cancer cells (HT-1080 fibrosarcoma cells) to determine a therapeutic window for healthy vs diseased cells. […] Cell Titer Glo® was used to read out cell viability after 48 hours of compound exposure. […]

[3] = tested on: HT-1080 fibrosarcoma cells; assay: Bodipy C-11 lipid peroxidation imaging in HT-1080 cells; assay type: cell-based; settings: 10 μM, 1 hour, with or without 1.5 μM ferrostatin-1, ferrostatin-1 rescued
Method: Compounds 6666, 6047, […], 8216, and 8147 were also evaluated for inducing lipid peroxidation in HT-1080 fibrosarcoma cells in the presence or absence of 1.5 µM ferrostatin-1. Briefly, HT-1080 fibrosarcoma cells were treated with 10 µM of compound with or without 1.5 μM ferrostatin-1 and incubated at 37° C. for 1 hour. Bodipy C-11 and Hoescht stain were then added to the media, the cells were allowed to incubate for an additional 30 minutes and then were imaged on the Opera Phenix confocal screening system.

Row | binding to recombinant GPX4 in vitro (recombinant GPX4 protein) | number of binding events / sites on GPX4 (mass shifts) (recombinant GPX4 protein) | mass shift of GPX4 (binding) (recombinant GPX4 protein; 100 μM compound, room temperature, 2 hours, UPLC-Synapt G2) | SMILES | HMOX1 induction (RT-qPCR) [1] | therapeutic window (HK-2 vs HT-1080 EC50 difference) [2] | HMOX1 upregulation and rescue by ferrostatin-1 (RT-qPCR) ([1]; 5 μM, 4 hours, with and without ferrostatin-1) | lipid peroxidation (Bodipy C-11 emission shift) [3]
1 | capable of binding GPX4 | display a single mass shift | – | CCCCCN(C(=O)CCl)c1c(N)n(CCCC)c(=O)[nH]c1=O [Compound 1816] | did not induce HMOX1 | – | – | –
2 | capable of binding GPX4 | can bind GPX4 either 2, 3, or 4 times | – | O=C(CCl)N1c2ccccc2OC[C@@H]1c1ccccc1 [Compound 1962] | did not lead to dose responsive induction of HMOX1 | – | – | –
3 | – | bind either 1, 2, or 3 times | – | CCOc1ccc(C[C@@H]2c3cc(OCC)c(OCC)cc3CCN2C(=O)CCl)cc1OCC [Compound 3362] | results in induction of HMOX1 | – | – | –
4 | capable of binding GPX4 | bind either 1, 2, or 3 times | demonstrate a mass shift | O=C(CCl)N(Cc1ccc(F)cc1)C1CCCCC1 [Compound 8216] | remarkably similar dose-dependent HMOX1 induction | comparable to that of RSL3 | upregulation of HMOX1 which was rescued by the addition of ferrostatin-1, to varying degrees | shift in emission reflective of lipid peroxidation
